Activity calls are given as the source filed them. How the calls were made is not given here.
The compounds below were run against T-cell receptor (TCR)-CD3 interaction, human (TCR alpha chain TRAV4) (assay: potency of TCR-CD3 interaction inhibitors, dose response, biochemical, fluorescence, TAMRA-labeled TCR probe (AID 686957)). Details: TCR-CD3 binding.

Row | IC50 | SMILES
1 | > 94.1 µM (inactive) | COC(=O)Nc1ccc(S(=O)(=O)NNC(=O)c2c(O)c3ccccc3[nH]c2=O)cc1
2 | > 94.1 µM (inactive) | CCCCCC(=O)NC(=S)NC1C2CC3CC(C2)CC1C3 (stereo unspecified)
3 | > 94.1 µM (inactive) | Cc1ccn2cc(-c3ccc(O)c(O)c3)nc2c1
4 | > 94.1 µM (inactive) | O=C(NNC(=O)C1CCN(S(=O)(=O)c2ccccc2C(F)(F)F)CC1)c1ccccc1O
5 | > 94.1 µM (inactive) | COCCn1c(=NC(=O)c2cc(-c3cccs3)nc3ccccc23)sc2cc(S(N)(=O)=O)ccc21
6 | > 94.1 µM (inactive) | CC(=O)c1ccc(NC(=O)CN2C(=O)/C(=C/C(C)=C/c3ccccc3)SC2=S)cc1
7 | > 94.1 µM (inactive) | COc1cc([N+](=O)[O-])cc(/C=N/NC(=O)c2cc(C)nc3ccccc23)c1O
8 | inactive | CN(C)S(=O)(=O)c1cccc(NC(=O)COC(=O)c2cc(-c3cccc(Br)c3)nc3ccccc23)c1
9 | > 94.1 µM (inactive) | O=C(NNC(=O)c1ccc2ccccc2c1O)NC1CCCCC1
10 | > 94.1 µM (inactive) | C/C(=N\NC(=O)c1c(C)nc2ccccn12)c1ccc(O)cc1O
11 | > 94.1 µM (inactive) | CCC(=O)Nc1ccc2nc3c(=O)[nH]c(=S)[nH]c3nc2c1
12 | > 94.1 µM (inactive) | Cc1[nH]n(-c2ccccc2)c(=O)c1N=Nc1ccccc1O
13 | > 94.1 µM (inactive) | CNC(=S)NNC(=O)c1cccn(Cc2cccc(C(F)(F)F)c2)c1=O
14 | > 94.2 µM (inactive) | COc1ccc(/C=N\NC(=O)c2cc(O)c(O)c(O)c2)cc1CN1CCN(c2ccc(F)cc2)CC1
15 | > 94.1 µM (inactive) | CCC1=NN(C(=O)c2cccc([N+](=O)[O-])c2)C(O)(c2ccc(C)cc2)C1 (stereo unspecified)
16 | > 94.1 µM (inactive) | O=C(CCN1C(=O)/C(=C\c2ccccc2)SC1=S)NNC(=O)c1ccccc1O
17 | > 94.1 µM (inactive) | O=C(N/N=C/c1cc(Br)cc(Cl)c1O)c1ccc2c(c1)OCO2
18 | > 94.1 µM (inactive) | Cc1ccc(C(=O)NNC(=O)c2cc3ccccc3cc2O)cc1

More lines, now with the values behind:

Row | SMILES | IC50
19 | COc1ccc(/C=C2\SC(=O)N(CC(=O)NNC(=O)c3ccccc3O)C2=O)cc1OC | > 94.1 µM (inactive)
20 | O=C(NC(C(=O)N/N=C/c1cc([N+](=O)[O-])ccc1O)c1n[nH]c(=O)c2ccccc12)c1ccccc1 (stereo unspecified) | > 94.1 µM (inactive)
21 | Cc1c(CC(=O)N2CCN(C(=O)C3COc4ccccc4O3)CC2)c(=O)oc2c(O)c(O)ccc12 (stereo unspecified) | 6.03 µM
22 | CCn1c(C)nc2cc(C(=O)NNC(=S)NC(=O)c3ccccc3)ccc21 | > 94.1 µM (inactive)
23 | O=c1c(CO)cc(CO)cc(CO)c1O | inactive
24 | O=C(CSc1nc2ccccc2c(=O)n1-c1ccc(F)c(Cl)c1)Nc1cccc(S(=O)(=O)N2CCOCC2)c1 | > 10.5 µM (inactive)
25 | O=c1c2ccccc2c(C=Nc2ccccc2O)c(O)n1-c1nccs1 | > 94.1 µM (inactive)
26 | Cc1nc(S/C(=C/c2ccc(-c3ccc(C(=O)O)cc3)o2)C(=O)O)n[nH]1 | > 94.2 µM (inactive)
27 | CCOc1ccc(Nc2ccc(N)c(S(=O)(=O)O)c2)cc1 | > 94.1 µM (inactive)
28 | O=C(NNC(=O)c1ccccc1F)c1cccc(-n2cccc2)c1 | > 94 µM (inactive)
29 | O=C(CSc1nc2ccccc2s1)N/N=C/c1cc([N+](=O)[O-])ccc1O | > 94.1 µM (inactive)
30 | C=CCNC(=S)NNC(=O)c1cccn(Cc2cccc(Cl)c2)c1=O | > 94.1 µM (inactive)
31 | Cc1cc(C(=O)N/N=C/c2cc(Br)cc([N+](=O)[O-])c2O)c2ccccc2n1 | > 94.1 µM (inactive)
32 | O=C(CSc1nnc(-c2ccccc2)n1Cc1ccccc1)NNC(=O)c1ccccc1O | > 94.1 µM (inactive)
33 | O=C(CCl)NNC(=O)c1c(O)c2ccccc2[nH]c1=O | > 94 µM (inactive)
34 | Cc1ccc2nc(-c3ccc(O)c(O)c3)cn2c1 | > 94.1 µM (inactive)
35 | O=C(NNC(=O)C1CCN(S(=O)(=O)c2ccccc2)CC1)c1ccccc1O | > 94.1 µM (inactive)
36 | O=C(CCCN1C(=O)/C(=C/c2cccs2)SC1=S)NNC(=O)c1ccccc1O | > 94.1 µM (inactive)

— PubChem BioAssay AID686957 (The Scripps Research Institute Molecular Screening Center, 2013)
